Experiments:
actinic keratoses (AKs) = settings: topical therapy, organ transplant recipients (Heppt et al. 2019); cited from earlier work
human T cells = test: Human T cell proliferation assay (PBMCs, anti-CD3, CellTiter-Glo); assay type: cell-based; settings: 50 ng/mL cyclosporine A, anti-CD3, 5 days
Protocol: Cyclosporine A 1 mg/mL stock (CsA—Sigma) was dissolved in DMSO, Rapamycin 5 mg/mL stock (LC Labs) was dissolved in ethanol.
Under sterile conditions, a 96 well flat bottom plate with white opaque walls (Perkin Elmer) was coated with 10 μg per well of purified human anti-CD3 antibody (clone OKT-3; Biolegend) in a volume of 50 μL per well in sterile PBS. The plate was covered in parafilm and incubated overnight at 4° C. Just prior to addition of Peripheral Blood Mononuclear Cells (PBMCs), the antibody solution was removed and discarded using a multichannel pipette. Wells were washed by adding 200 μL sterile PBS to each well and incubating for 2 min. PBS wash solution was removed and discarded following incubation. The wash step was repeated once, for a total of two PBS washes.
20 mL of blood from a consenting healthy volunteer was collected into lithium heparin vacuette containers (Greiner Bio-One). Under sterile conditions, blood from each container was pooled into a single tube and mixed thoroughly with 20 mL FACS buffer (2% FBS in 1×PBS). 15 mL Ficoll-Paque (GE Healthcare) was added to two 50 mL Falcon tubes, before 20 mL of whole blood/FACS buffer mixture was carefully and slowly dispensed on top of the Ficoll layer. Tubes were centrifuged at 800 g for 20 min at room temperature with the brake off. After centrifugation, the resulting PBMC layer between the plasma and Ficoll layers was carefully removed and transferred to a new 50 mL Falcon tube. Tubes were topped up to 45 mL with FACS buffer, then centrifuged at 500 g for 15 min. Supernatant was carefully removed without disturbing cell pellet, then PBMCs from both tubes were pooled. 30 mL of pre-warmed complete RPMI media [RPMI 1640 (Gibco), 10% heat inactivated FBS (Gibco), 1× Penicillin/Streptomycin/L-Glutamine (Gibco), 100 μM 2-Mercaptoethanol (Sigma)] was added to PBMCs, before centrifugation at 500 g for 15 min at room temperature. Supernatant was removed carefully without disturbing cell pellet. PBMCs were resuspended in 1 mL complete RPMI media.
PBMCs were counted manually using a haemocytometer and cell concentration was adjusted to 1.5×10^6 cells/mL with complete RPMI media. 50 μL of cell suspension was added to appropriate wells of the 96 well flat bottom plate with white opaque walls pre-coated in human anti-CD3. The final number of cells per well was 7.5×10^4.
Cells were incubated in a humidified incubator at 37° C. with 5% CO2 for 1 hour before Compound 1 (or vehicle only) was diluted in complete RPMI medium and added to the appropriate wells at the concentration required. The final volume in all wells was 100 μL. Cells were incubated for 5 days in a humidified incubator at 37° C. with 5% CO2.
CellTiter-Glo Luminescent Cell Viability Assay (Promega) was performed to determine the level of metabolically active cells per well based on ATP quantification. CellTiter-Glo Buffer and lyophilised CellTiter-Glo Substrate were equilibrated to room temperature. CellTiter-Glo Substrate was reconstituted with 10 mL CellTiter-Glo Buffer and gently vortexed for 1 minute to create the CellTiter-Glo Reagent. The 96 well plate containing PBMCs was equilibrated to room temperature for 30 min. Once at room temperature, 100 μL of CellTiter-Glo Reagent was dispensed using a multichannel pipette into each well containing 100 μL cells and media. The plate was mixed for 2 min at room temperature on an orbital shaker to induce cell lysis. The plate was then incubated for 10 min at room temperature in the dark to stabilize the luminescence signal. Luminescence signal was recorded using a CLARIOstar Plus plate reader (BMG Labtech).
PBMCs were stimulated with human anti-CD3 antibody and T cells were allowed to proliferate at 37° C. with 5% CO2 in a humidified incubator for 5 days. Proliferation/viability was assessed via a CellTiter-Glo Luminescent Cell Viability Assay and luminescence was read using a CLARIOstar Plus plate reader. […]

| Compound | complete clearance rate of AKs (actinic keratoses (AKs)) | T cell proliferation compared to the vehicle control (human T cells) |
| --- | --- | --- |
| O=c1[nH]cc(F)c(=O)[nH]1 [5-fluorouracil] | 11% |  |
| CC(C)Cn1cnc2c(N)nc3ccccc3c21 [imiquimod] | 27.5-62.1% |  |
| cyclosporine A [reference compound] |  | inhibited |
